The values below come from patent US4018895A, “Aryloxyphenylpropylamines in treating depression” (Eli Lilly and Company, priority 1975, dated 1977).

Series [1] deals with QRS complex of the electrocardiogram. In words: Electrocardiogram in anesthetized cats after intravenous injection. The settings on record: in words.
Series [2] has as its system hypothermia induced by the injection of apomorphine. Briefly: Apomorphine hypothermia antagonism test. It counts as in vivo, mice. The conditions noted are these: for Reduction of apomorphine hypothermia: 10 mg./kg. dose, measured 60 minutes after injection of the apomorphine; for Activity in antagonism of apomorphine hypothermia: in words. On the procedure:
The apomorphine hypothermia antagonism test is carried out as follows: mice are injected with a dose of apomorphine known to reduce body temperature approximately 4° C. […] The degree of antagonism is expressed as a percent reduction (as compared with controls) of the temperature decrease produced by the injection of the apomorphine. The reserpine hypothermia reversal test is carried out as follows: groups of mice are injected with reserpine and 16.5 hours later are injected intraperitoneally with graded doses of the drug, a different dose level being given to each group of mice. Temperatures are measured at 1 hour after injection of the drug under test and again the effectiveness of the drug is expressed as a percentage decrease in the hypothermia induced by the injection of reserpine as compared with the control group. In the tablets which follow, Table 4 gives the results in the apomorphine antagonism and reserpine reversal hypothermia tests for the secondary amines of this invention. In the table, the first column gives the substituent attached to the oxygen atom at the 3 position of the propylamine chain; columns 2 to 4 the percent antagonism against apomorphine hypothermia at dose levels of 0.3, 1 and 3 mg./kg. and columns 5-7 the percent reversal of reserpine hypothermia at the same dose levels.

Series [3] has as its system hypothermia induced by the injection of reserpine. Briefly: Reserpine hypothermia reversal test. It counts as in vivo, mice. The conditions noted are these: for Activity in reversal of reserpine hypothermia: in words; for inhibition in vivo at 1 mg/kg / inhibition in vivo at 3 mg/kg / inhibition in vivo at 10 mg/kg: Mus musculus, ip, 1 h, Table 5, dimethylamino compounds, Post-60 min., mice, read-out: Percent Antagonism Reserpine; for inhibition in vivo at 1 mg/kg: 1 mg./kg. intraperitoneally; for inhibition in vivo at 3 mg/kg: 3 mg./kg. intraperitoneally; for inhibition in vivo at 10 mg/kg: 10 mg./kg. intraperitoneally. The protocol:
The apomorphine hypothermia antagonism test is carried out as follows: mice are injected with a dose of apomorphine known to reduce body temperature approximately 4° C. The compound under test is injected 1/2 hour before the injection of the apomorphine and the temperatures measured 1/2 hour after injection. The degree of antagonism is expressed as a percent reduction (as compared with controls) of the temperature decrease produced by the injection of the apomorphine. The reserpine hypothermia reversal test is carried out as follows: groups of mice are injected with reserpine and 16.5 hours later are injected intraperitoneally with graded doses of the drug, a different dose level being given to each group of mice. Temperatures are measured at 1 hour after injection of the drug under test and again the effectiveness of the drug is expressed as a percentage decrease in the hypothermia induced by the injection of reserpine as compared with the control group. In the tablets which follow, Table 4 gives the results in the apomorphine antagonism and reserpine reversal hypothermia tests for the secondary amines of this invention. In the table, the first column gives the substituent attached to the oxygen atom at the 3 position of the propylamine chain; columns 2 to 4 the percent antagonism against apomorphine hypothermia at dose levels of 0.3, 1 and 3 mg./kg. and columns 5-7 the percent reversal of reserpine hypothermia at the same dose levels.

The subject of a further series is brain serotonin. Briefly: Prevention of brain serotonin depletion caused by 4-chloroamphetamine. It counts as in vivo. The settings on record: rats injected with 4-chloroamphetamine; drug 15 mg./kg. intraperitoneally; 4 hours later. The protocol: Following this injection, the protecting drug was injected at a dose of 15 mg./kg. of rat-weight intraperitoneally and determinations of brain serotonin levels were carried out 4 hours later.

In series [4] the test system is antihistaminic effect, isolated muscle strips. Briefly: Antihistaminic effect in isolated muscle strips.
Series [5] deals with anticholinergic effect, isolated muscle strips. Briefly: Anticholinergic effect in isolated muscle strips.
The subject of series [6] is antiserotonin effect, isolated muscle strips. Briefly: Antiserotonin effect in isolated muscle strips.
Series [7] has as its system response rates of pigeons. In words: Operant behavior, fixed-ratio, fixed interval schedule. The class given is in vivo. An excerpt:
In manifesting their psychotropic action, the compounds of this invention also affect the behavior of animals trained in a variety of operant behavior schedules. Again, the activity of compounds of this invention in this type of test parallels that of known antidepressant drugs, particularly desmethylimipramine. […] With pigeons trained under an adjusting ratio schedule, the drugs of this invention affect behavior in the same way as does the marketed antidepressant, desmethylimipramine (DMI). […] The above results are consistent with antidepressant action.

The subject of series [8] is norepinephrine uptake by synaptosomes from rat brain. Briefly: In vitro blockade of norepinephrine uptake by synaptosomes from rat brain. It counts as biochemical. The conditions noted are these: Table 1, scaffold drawing 3; norepinephrine 0.48 μM. From the text: (§1) This blockade is shown both in vitro with radioactive labelled compounds to determine the amount of monoamine uptake by synaptosomes from rat brain, and in vivo by a variety of methods. Among the physiologically active monoamines whose uptake is blocked by the compounds of this invention are included serotonin, norepinephrine and dopamine (3,4-dihydroxyphenylethylamine). […] Tables 1 and 2 which follow set forth the results of some of the in vitro determinations of the blockage of monoamine uptake by the compounds of this invention. In the tables, column 1 gives the R substituent on the 3-phenylpropylamine and columns 2-4, the concentration in micrograms per ml. that blocks the uptake of a particular amine by 50 percent for the amines--norephinephrine, serotonin, and dopamine. At the head of each column is given the concentration of the particular monoamine used in the experiment.

Series [9] deals with serotonin uptake by synaptosomes from rat brain. In words: In vitro blockade of serotonin uptake by synaptosomes from rat brain. The conditions noted are these: Table 1, scaffold drawing 3; serotonin 0.1 μM. It counts as biochemical.
Source text: as §1

For series [10], the system named is dopamine uptake by synaptosomes from rat brain. In words: In vitro blockade of dopamine uptake by synaptosomes from rat brain. It counts as biochemical. The conditions noted are these: Table 1, scaffold drawing 3; dopamine 0.2 μM.
Source text: as §1

The mark [11] stands for this setting: Mus musculus, Table 5, dimethylamino compounds, Pre-30 min., mice, read-out: Percent Antagonism Apomorphine.

`COc1ccccc1OC(CCN)c1ccccc1` (stereo not drawn) [3-(o-Methoxyphenoxy)-3-phenylpropylamine, 3-(o-methoxyphenoxy)-3-phenylpropylamine]: the “Effect on the electrocardiogram (widening of the QRS complex)” value in series [1] is “affects the electrocardiogram similarly, but at far higher doses”.

On to `CN(C)CCC=C1c2ccccc2CCc2ccccc21` [amitriptyline, reference compound], for which the “Effect on the electrocardiogram (widening of the QRS complex)” value in series [1] was “causes a widening of the QRS complex of the electrocardiogram”. Further, in [2], the “Reduction of apomorphine hypothermia” value was determined as 100% and the “Activity in antagonism of apomorphine hypothermia” value is “active”. The “Activity in reversal of reserpine hypothermia” value in [3] is recorded as “active”.

For `CN(C)CCCN1c2ccccc2CCc2ccc(Cl)cc21` [chloroimipramine], the Brain serotonin level in the series on brain serotonin was 0.45 ± .03 µg/g.

Regarding `CNCCCN1c2ccccc2CCc2ccccc21` [desmethylimipramine], the “Potency as antihistaminic agent relative to N-methyl 3-(o-methoxyphenoxy)-3-phenylpropylamine” value in [4] stood at 150 times. Moreover, the “Activity in antagonism of apomorphine hypothermia” value in series [2] is listed as “active”. Besides, the Brain serotonin level in the series on brain serotonin is 0.44 ± .03 µg/g. Also, the “Potency as anticholinergic agent relative to N-methyl 3-(o-methoxyphenoxy)-3-phenylpropylamine” value in series [5] is 150 times. The “Activity in reversal of reserpine hypothermia” value in [3] is on record as “active”. The “Potency as antiserotonin agent relative to N-methyl 3-(o-methoxyphenoxy)-3-phenylpropylamine” value in series [6] is on record as “three”. The “Response rates in fixed-ratio, fixed interval schedule” value in series [7] (in words) is “A similar effect”.

As for `CNCCC(Oc1ccccc1OC)c1ccccc1.Cl` (stereo not drawn) [o-anisyl, N-methyl 3-(o-methoxyphenoxy)-3-phenylpropylamine hydrochloride], the “Reduction of apomorphine hypothermia” value in series [2] stood at 100%. Further, in series [7], the “Persistence of the effect on response rates” value was “more than 24 hours”.

Regarding `CNCCC(Oc1ccc(C(F)(F)F)cc1)c1ccccc1` (stereo not drawn) [p-trifluoromethylphenyl, N-methyl 3-(p-trifluoromethylphenoxy)-3-phenylpropylamine], in the series with brain serotonin, the Brain serotonin level was 0.69 ± .02 µg/g.

For the molecule `CN(C)CCC(Oc1ccccc1)c1ccccc1` (stereo not drawn) [phenyl], in series [2] (setting [11]), the inhibition in vivo at 3 mg/kg was 3% and the inhibition in vivo at 10 mg/kg was determined as 54%. In [8], the “Concentration that blocks 50% of amine uptake, Norepinephrine” value amounted to 1 mcq./ml. Moreover, in series [3], the inhibition in vivo at 1 mg/kg was determined as 20%, the inhibition in vivo at 3 mg/kg was 20% and the inhibition in vivo at 10 mg/kg came out at 49%. For the same molecule, the “Concentration that blocks 50% of amine uptake, Serotonin” value in [9] is on record as “.6 mcq./ml”. For the same molecule, the “Concentration that blocks 50% of amine uptake, Dopamine” value in [10] is given as “.3 mcq./ml”.

`CN(C)CCC(Oc1cccc2ccccc12)c1ccccc1.O=C(O)/C=C\C(=O)O` (stereo not drawn) [α-naphthyl, N,N-dimethyl 3-(α-naphthyloxy)-3-phenylpropylamine maleate]: in series [2] (Mus musculus, Table 5, dimethylamino compounds, 1 mg./kg., Pre-30 min., mice, read-out: Percent Antagonism Apomorphine), the inhibition in vivo at 1 mg/kg is -17%. In series [2] (setting [11]), the inhibition in vivo at 3 mg/kg was -10% and the inhibition in vivo at 10 mg/kg was -7%. For the same molecule, the “Concentration that blocks 50% of amine uptake, Norepinephrine” value in [8] stood at 3 mcq./ml. Moreover, in series [3], the inhibition in vivo at 1 mg/kg is 15%, the inhibition in vivo at 3 mg/kg is 4% and the inhibition in vivo at 10 mg/kg is 15%. Moreover, the “Concentration that blocks 50% of amine uptake, Serotonin” value in [9] was “.03 mcq./ml”. Moreover, in [10], the “Concentration that blocks 50% of amine uptake, Dopamine” value is 2.5 mcq./ml.
